Measured values reported in patent EP4707277A1, “NOVEL HETEROCYCLIC AMINE DERIVATIVES AND PHARMACEUTICAL COMPOSITION COMPRISING SAME” (Daewoong Pharmaceutical Co., Ltd., priority 2023, dated 2024).

What was measured:
ITK = target: T1, ITK (Homo sapiens, UniProt Q08881); assay: Inhibitory activity against ITK, ADP-Glo Kinase system (Promega); type: biochemical; conditions: 1mM ATP; read-out: ITK IC50(nM) 1mM ATP
T1 construct: purchased Signalchem I13-11G-10
T1 sequence (Q08881 1-620): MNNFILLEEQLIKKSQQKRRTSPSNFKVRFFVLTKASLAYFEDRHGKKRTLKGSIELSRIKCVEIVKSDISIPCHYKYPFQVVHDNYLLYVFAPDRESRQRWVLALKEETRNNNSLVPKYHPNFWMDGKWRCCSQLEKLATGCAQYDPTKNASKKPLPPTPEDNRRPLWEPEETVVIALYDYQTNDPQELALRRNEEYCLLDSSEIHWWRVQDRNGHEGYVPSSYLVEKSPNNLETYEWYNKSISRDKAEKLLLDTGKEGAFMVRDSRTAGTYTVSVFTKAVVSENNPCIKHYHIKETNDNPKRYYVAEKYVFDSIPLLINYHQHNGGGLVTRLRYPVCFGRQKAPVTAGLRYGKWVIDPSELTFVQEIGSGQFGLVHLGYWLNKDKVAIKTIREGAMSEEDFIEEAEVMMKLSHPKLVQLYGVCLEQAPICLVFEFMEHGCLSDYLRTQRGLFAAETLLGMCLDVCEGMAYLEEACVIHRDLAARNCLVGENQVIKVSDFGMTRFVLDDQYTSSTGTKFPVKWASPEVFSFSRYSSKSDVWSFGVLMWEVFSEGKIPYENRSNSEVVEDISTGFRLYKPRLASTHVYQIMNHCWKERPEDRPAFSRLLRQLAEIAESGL
Summary of the method: (§1)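 IC50 values were fitted from kinase reactions run for 1 h at 30°C with either 1 mM ATP or ATP at Km (10 µM for BTK, 25 µM for ITK). Reactions used 0.2 µg/µl poly(Glu4,Tyr1), recombinant human enzyme (BTK 10 ng, ITK 4 ng per reaction) in Tris pH 7.5 Mn/Mg buffer with 1% DMSO. ADP formed was read by ADP-Glo luminescence.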

BTK = target: T2, BTK (Homo sapiens, UniProt Q06187); assay: Inhibitory activity against BTK, ADP-Glo Kinase system (Promega); type: biochemical; conditions: 1mM ATP; read-out: BTK IC50(nM) 1mM ATP
T2 construct: purchased Signalchem B10-10H
T2 sequence (Q06187 whole entry): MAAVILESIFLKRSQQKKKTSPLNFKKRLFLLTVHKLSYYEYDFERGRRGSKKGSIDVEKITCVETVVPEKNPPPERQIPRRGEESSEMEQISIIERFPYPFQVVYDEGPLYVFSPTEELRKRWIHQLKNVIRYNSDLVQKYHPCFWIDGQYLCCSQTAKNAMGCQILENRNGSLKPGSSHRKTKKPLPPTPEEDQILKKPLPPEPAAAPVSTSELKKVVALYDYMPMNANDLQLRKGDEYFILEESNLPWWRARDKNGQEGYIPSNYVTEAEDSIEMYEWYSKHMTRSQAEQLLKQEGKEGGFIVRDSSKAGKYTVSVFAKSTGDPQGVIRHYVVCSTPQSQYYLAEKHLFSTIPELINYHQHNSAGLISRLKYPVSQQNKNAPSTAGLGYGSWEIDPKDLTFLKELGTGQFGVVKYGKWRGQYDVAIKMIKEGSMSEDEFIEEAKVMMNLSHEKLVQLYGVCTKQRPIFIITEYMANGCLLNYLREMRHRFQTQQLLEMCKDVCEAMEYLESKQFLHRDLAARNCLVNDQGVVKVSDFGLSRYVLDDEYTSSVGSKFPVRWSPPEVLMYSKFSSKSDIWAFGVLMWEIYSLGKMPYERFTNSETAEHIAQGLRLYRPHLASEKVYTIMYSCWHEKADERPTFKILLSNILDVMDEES
Summary of the method: as §1

SMILES	IC50 (ITK) [nM]	IC50 (BTK) [nM]
C=CC(=O)N1CCC[C@@H](COc2nc(Nc3ncc(C)s3)cc3c2ccn3CC(C)C)C1 [Example 214, (R)-1-(3-(((1-isobutyl-6-((5-methylthiazol-2-yl)amino)-1H-pyrrolo[3,2-c]pyridin-4-yl)oxy)methyl)piperidin-1-yl)prop-2-en-1-one]	> 500	20 to 100
C=CC(=O)N1CCC[C@H](COc2nc(Nc3ncc(C)s3)cc3c2ccn3CC(C)C)C1 [Example 215, (S)-1-(3-(((1-isobutyl-6-((5-methylthiazol-2-yl)amino)-1H-pyrrolo[3,2-c]pyridin-4-yl)oxy)methyl)piperidin-1-yl)prop-2-en-1-one]	100 to 500	≤ 20
C=CC(=O)N1CC[C@H](COc2nc(Nc3ncc(C)s3)cc3c2ccn3CC(C)C)C1 [Example 216, (S)-1-(3-(((1-isobutyl-6-((5-methylthiazol-2-yl)amino)-1H-pyrrolo[3,2-c]pyridin-4-yl)oxy)methyl)pyrrolidin-1-yl)prop-2-en-1-one]	100 to 500	20 to 100
C=CC(=O)N1CCCC1COc1nc(Nc2ncc(C)s2)cc2c1ccn2C1CCCC1 (stereo not shown) [Example 217, 1-(2-(((1-cyclopentyl-6-((5-methylthiazol-2-yl)amino)-1H-pyrrolo[3,2-c]pyridin-4-yl)oxy)methyl)pyrrolidin-1-yl)prop-2-en-1-one]	20 to 100	≤ 20
C=CC(=O)N1CCC[C@H]1COc1nc(Nc2ncc(C)s2)cc2c1ccn2C(C)C [Example 219, (S)-1-(2-(((1-isopropyl-6-((5-methylthiazol-2-yl)amino)-1H-pyrrolo[3,2-c]pyridin-4-yl)oxy)methyl)pyrrolidin-1-yl)prop-2-en-1-one]	> 500	20 to 100
C=CC(=O)N1CCC[C@H]1COc1nc(Nc2ncc(C)s2)cc2c1ccn2CC1CCCC1 [Example 220, (S)-1-(2-(((1-(cyclopentylmethyl)-6-((5-methylthiazol-2-yl)amino)-1H-pyrrolo[3,2-c]pyridin-4-yl)oxy)methyl)pyrrolidin-1-yl)prop-2-en-1-one]	20 to 100	≤ 20
C=CC(=O)N1CCC[C@H]1COc1nc(Nc2ncc(C)s2)cc2c1ccn2CC(C)CC (stereo partly drawn) [Example 221, 1-((2S)-2-(((1-(2-methylbutyl)-6-((5-methylthiazol-2-yl)amino)-1H-pyrrolo[3,2-c]pyridin-4-yl)oxy)methyl)pyrrolidin-1-yl)prop-2-en-1-one]	20 to 100	≤ 20
C=CC(=O)N1CCC[C@H]1COc1nc(Nc2ncc(C)s2)cc2c1ccn2C1CCCC1 [Example 222, (S)-1-(2-(((1-cyclopentyl-6-((5-methylthiazol-2-yl)amino)-1H-pyrrolo[3,2-c]pyridin-4-yl)oxy)methyl)pyrrolidin-1-yl)prop-2-en-1-one]	20 to 100	≤ 20
C=C(F)C(=O)N1CC[C@H](Oc2nc(Nc3ncc(C)s3)cc3c2ccn3CC(C)C)C1 [Example 224, (S)-2-fluoro-1-(3-((1-isobutyl-6-((5-methylthiazol-2-yl)amino)-1H-pyrrolo[3,2-c]pyridin-4-yl)oxy)pyrrolidin-1-yl)prop-2-en-1-one]	> 500	> 500
C/C=C/C(=O)N1CC[C@H](Oc2nc(Nc3ncc(C)s3)cc3c2ccn3CC(C)C)C1 [Example 226, (S,E)-1-(3-((1-isobutyl-6-((5-methylthiazol-2-yl)amino)-1H-pyrrolo[3,2-c]pyridin-4-yl)oxy)pyrrolidin-1-yl)but-2-en-1-one]	> 500	> 500

Continued, values first:

IC50 (ITK) [nM]	IC50 (BTK) [nM]	SMILES
≤ 20	≤ 20	C=CC(=O)N1CCC[C@@H]1COc1nc(Nc2ncc(C)s2)cc2c1ccn2CC(F)(F)F [Example 207, (R)-1-(2-(((6-((5-methylthiazol-2-yl)amino)-1-(2,2,2-trifluoroethyl)-1H-pyrrolo[3,2-c]pyridin-4-yl)oxy)methyl)pyrrolidin-1-yl)prop-2-en-1-one]
≤ 20	≤ 20	C=CC(=O)N1CC[C@@H]1COc1nc(Nc2ncc(C)s2)cc2c1ccn2CC(F)(F)F [Example 208, (R)-1-(2-(((6-((5-methylthiazol-2-yl)amino)-1-(2,2,2-trifluoroethyl)-1H-pyrrolo[3,2-c]pyridin-4-yl)oxy)methyl)azetidin-1-yl)prop-2-en-1-one]
≤ 20	≤ 20	C=CC(=O)N1CC[C@@H]1COc1nc(Nc2ncc(C)s2)cc2c1ccn2CC(F)F [Example 209, (R)-1-(2-(((1-(2,2-difluoroethyl)-6-((5-methylthiazol-2-yl)amino)-1H-pyrrolo[3,2-c]pyridin-4-yl)oxy)methyl)azetidin-1-yl)prop-2-en-1-one]
≤ 20	≤ 20	C=CC(=O)N1CCC[C@@H]1COc1nc(Nc2ncc(C)s2)cc2c1ccn2CC(F)F [Example 210, (R)-1-(2-(((1-(2,2-difluoroethyl)-6-((5-methylthiazol-2-yl)amino)-1H-pyrrolo[3,2-c]pyridin-4-yl)oxy)methyl)pyrrolidin-1-yl)prop-2-en-1-one]
≤ 20	≤ 20	C=CC(=O)N1C[C@H](F)[C@H](Oc2nc(Nc3ncc(C)s3)cc3c2ccn3CC(F)(F)F)C1 [Example 211, 1-((3S,4R)-3-fluoro-4-((6-((5-methylthiazol-2-yl)amino)-1-(2,2,2-trifluoroethyl)-1H-pyrrolo[3,2-c]pyridin-4-yl)oxy)pyrrolidin-1-yl)prop-2-en-1-one]
≤ 20	≤ 20	C=CC(=O)N1C[C@@H](Oc2nc(Nc3ncc(C)s3)cc3c2ccn3CC(F)(F)F)C[C@H]1C [Example 212, 1-((2R,4S)-2-methyl-4-((6-((5-methylthiazol-2-yl)amino)-1-(2,2,2-trifluoroethyl)-1H-pyrrolo[3,2-c]pyridin-4-yl)oxy)pyrrolidin-1-yl)prop-2-en-1-one]
≤ 20	≤ 20	C=CC(=O)N1CC[C@H](Oc2nc(Nc3ncc(C)s3)cc3c2ccn3[C@H](C)C(F)(F)F)C1 [Example 213, 1-((S)-3-((6-((5-methylthiazol-2-yl)amino)-1-((R)-1,1,1-trifluoropropan-2-yl)-1H-pyrrolo[3,2-c]pyridin-4-yl)oxy)pyrrolidin-1-yl)prop-2-en-1-one]
≤ 20	≤ 20	C=CC(=O)N1CCC1COc1nc(Nc2ncc(C)s2)cc2c1ccn2C1CCCC1 (stereo not shown) [Example 218, 1-(2-(((1-cyclopentyl-6-((5-methylthiazol-2-yl)amino)-1H-pyrrolo[3,2-c]pyridin-4-yl)oxy)methyl)azetidin-1-yl)prop-2-en-1-one]
≤ 20	≤ 20	C=CC(=O)N1CC[C@@H]1COc1nc(Nc2ncc(C)s2)cc2c1ccn2C1CCCC1 [Example 223, (R)-1-(2-(((1-cyclopentyl-6-((5-methylthiazol-2-yl)amino)-1H-pyrrolo[3,2-c]pyridin-4-yl)oxy)methyl)azetidin-1-yl)prop-2-en-1-one]
≤ 20	≤ 20	C#CC(=O)N1CC[C@H](Oc2nc(Nc3ncc(C)s3)cc3c2ccn3CC(C)C)C1 [Example 225, (S)-1-(3-((1-isobutyl-6-((5-methylthiazol-2-yl)amino)-1H-pyrrolo[3,2-c]pyridin-4-yl)oxy)pyrrolidin-1-yl)prop-2-yn-1-one]
